Test results from patent US10851083B2, “Benzoimidazoles as prolyl hydroxylase inhibitors” (Janssen Pharmaceutica NV, priority 2008, dated 2020).
One block for each molecule: values may come before it.

What was measured:
human PHD2181-417 = human PHD2181-417 (Homo sapiens (Human), UniProt Q9GZT9); assay: PHD2 enzyme activity assay ([14C]-succinic acid production); format: biochemical; settings: PHD2181-417 polypeptide, HIF-1α peptide 10 μM, [5-14C]-2-oxoglutaric acid; 30 min pre-incubation; tested 10 μM to 3 nM;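 also: reaction ran 10 min with compound in Tris pH 7.5 buffer with catalase, DTT and ascorbate, labelled succinate freed of leftover 2-oxoglutarate by DNP precipitation, then beta counted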
Sequence of human PHD2181-417 (Q9GZT9 181-417): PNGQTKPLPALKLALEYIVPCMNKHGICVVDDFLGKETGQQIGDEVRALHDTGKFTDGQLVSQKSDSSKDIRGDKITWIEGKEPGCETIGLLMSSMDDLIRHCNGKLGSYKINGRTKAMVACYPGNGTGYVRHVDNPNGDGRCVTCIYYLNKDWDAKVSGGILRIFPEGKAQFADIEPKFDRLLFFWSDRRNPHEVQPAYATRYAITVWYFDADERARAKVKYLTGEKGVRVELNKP

Hep-3B cells = assay: Cellular assay: EPO secretion in Hep-3B cells; format: cell-based, human; design: EPO secretion, % of control compound: dose or concentration left out as unconfirmed; settings: Homo sapiens, Hep3B, 24 h, EPO secretion as percentage of control compound 7-[(4-Chloro-phenyl)-(5-methyl-isoxazol-3-ylamino)-methyl]-quinolin-8-ol, read-out: Cellular % EPO Stimulation

SMILES: O=C(O)c1cnn(-c2nc3cc(Oc4ccc(Cl)cc4)c(C(F)(F)F)cc3[nH]2)c1 [Example 55, 1-[5-(4-Chloro-phenoxy)-6-trifluoromethyl-1H-benzoimidazol-2-yl]-1H-pyrazole-4-carboxylic Acid]
Enzyme pIC50 (human PHD2181-417): 7.5
EPO secretion, % of control compound (Hep-3B cells): 44.2%

SMILES: O=C(O)c1cnn(-c2nc3cc(Oc4ccccc4)c(C(F)(F)F)cc3[nH]2)c1 [Example 56, 1-(5-Phenoxy-6-trifluoromethyl-1H-benzoimidazol-2-yl)-1H-pyrazole-4-carboxylic Acid]
Enzyme pIC50 (human PHD2181-417): 7.2
EPO secretion, % of control compound (Hep-3B cells): 143%

SMILES: Cc1ccc2c(n1)c(Br)cc1nc(-n3cc(C(=O)O)cn3)[nH]c12 [Example 58, 1-(5-Bromo-7-methyl-1H-imidazo[4,5-f]quinolin-2-yl)-1H-pyrazole-4-carboxylic Acid]
Enzyme pIC50 (human PHD2181-417): 7.2
EPO secretion, % of control compound (Hep-3B cells): 50%

SMILES: O=C(O)c1cnn(-c2nc3cc(OCc4ccccc4)c(Cl)cc3[nH]2)c1 [Example 59, 1-(5-Benzyloxy-6-chloro-1H-benzoimidazol-2-yl)-1H-pyrazole-4-carboxylic Acid]
Enzyme pIC50 (human PHD2181-417): 6.4
EPO secretion, % of control compound (Hep-3B cells): 55.9%

SMILES: CC(C)(C)c1ccc(CSc2cc3nc(-n4cc(C(=O)O)cn4)[nH]c3cc2Cl)cc1 [Example 67, 1-[5-(4-tert-Butyl-benzylsulfanyl)-6-chloro-1H-benzoimidazol-2-yl]-1H-pyrazole-4-carboxylic Acid]
Enzyme pIC50 (human PHD2181-417): 7.2
EPO secretion, % of control compound (Hep-3B cells): 11.7%

SMILES: O=C(O)c1cnn(-c2nc3cc(SCCc4ccccc4)c(Cl)cc3[nH]2)c1 [Example 70, 1-(6-Chloro-5-phenethylsulfanyl-1H-benzoimidazol-2-yl)-1H-pyrazole-4-carboxylic Acid]
Enzyme pIC50 (human PHD2181-417): 6.7
EPO secretion, % of control compound (Hep-3B cells): 74.2%

SMILES: CSc1cc2[nH]c(-n3cc(C(=O)O)cn3)nc2cc1C(F)(F)F [Example 71, 1-(6-Methylsulfanyl-5-trifluoromethyl-1H-benzoimidazol-2-yl)-1H-pyrazole-4-carboxylic Acid]
Enzyme pIC50 (human PHD2181-417): 7.1
EPO secretion, % of control compound (Hep-3B cells): 114%

SMILES: CSc1cc2[nH]c(-n3cc(C(=O)O)cn3)nc2cc1F [Example 74, 1-(5-Fluoro-6-methylsulfanyl-1H-benzoimidazol-2-yl)-1H-pyrazole-4-carboxylic Acid]
Enzyme pIC50 (human PHD2181-417): 6.9
EPO secretion, % of control compound (Hep-3B cells): 77.8%

SMILES: CSc1cc2[nH]c(-n3cc(C(=O)O)cn3)nc2cc1Cl [Example 75, 1-(5-Chloro-6-methylsulfanyl-1H-benzoimidazol-2-yl)-1H-pyrazole-4-carboxylic Acid]
Enzyme pIC50 (human PHD2181-417): 7
EPO secretion, % of control compound (Hep-3B cells): 106%

SMILES: CCSc1cc2[nH]c(-n3cc(C(=O)O)cn3)nc2cc1Cl [Example 76, 1-(5-Chloro-6-ethylsulfanyl-1H-benzoimidazol-2-yl)-1H-pyrazole-4-carboxylic Acid]
Enzyme pIC50 (human PHD2181-417): 6.9
EPO secretion, % of control compound (Hep-3B cells): 212%

SMILES: CC(C)Sc1cc2[nH]c(-n3cc(C(=O)O)cn3)nc2cc1Cl [Example 77, 1-(5-Chloro-6-isopropylsulfanyl-1H-benzoimidazol-2-yl)-1H-pyrazole-4-carboxylic Acid]
Enzyme pIC50 (human PHD2181-417): 6.8
EPO secretion, % of control compound (Hep-3B cells): 153%

SMILES: CCCSc1cc2[nH]c(-n3cc(C(=O)O)cn3)nc2cc1Cl [Example 78, 1-(5-Chloro-6-propylsulfanyl-1H-benzoimidazol-2-yl)-1H-pyrazole-4-carboxylic Acid]
Enzyme pIC50 (human PHD2181-417): 7
EPO secretion, % of control compound (Hep-3B cells): 125%

SMILES: CSc1cc2[nH]c(-n3cc(C(=O)O)cn3)nc2cc1OC(F)(F)F [Example 79, 1-(6-Methylsulfanyl-5-trifluoromethoxy-1H-benzoimidazol-2-yl)-1H-pyrazole-4-carboxylic Acid]
Enzyme pIC50 (human PHD2181-417): 7.1
EPO secretion, % of control compound (Hep-3B cells): 83.8%

SMILES: O=C(O)c1cnn(-c2nc3cc(S(=O)(=O)c4ccccc4)c(Cl)cc3[nH]2)c1 [Example 83, 1-(5-Benzenesulfonyl-6-chloro-1H-benzoimidazol-2-yl)-1H-pyrazole-4-carboxylic Acid]
Enzyme pIC50 (human PHD2181-417): 7.57
EPO secretion, % of control compound (Hep-3B cells): 96.7%

SMILES: O=C(O)c1cnn(-c2nc3cc(S(=O)(=O)c4ccc(Cl)cc4)c(Cl)cc3[nH]2)c1 [Example 85, 1-[6-Chloro-5-(4-chloro-benzenesulfonyl)-1H-benzoimidazol-2-yl]-1H-pyrazole-4-carboxylic Acid]
Enzyme pIC50 (human PHD2181-417): 7.3
EPO secretion, % of control compound (Hep-3B cells): 51.6%

SMILES: O=C(O)c1cnn(-c2nc3cc(S(=O)(=O)c4ccc(OC(F)(F)F)cc4)c(Cl)cc3[nH]2)c1 [Example 86, 1-[6-Chloro-5-(4-trifluoromethoxy-benzenesulfonyl)-1H-benzoimidazol-2-yl]-1H-pyrazole-4-carboxylic Acid]
Enzyme pIC50 (human PHD2181-417): 7.3
EPO secretion, % of control compound (Hep-3B cells): 48.9%

SMILES: O=C(O)c1cnn(-c2nc3cc(S(=O)(=O)c4ccc(Cl)c(Cl)c4)c(Cl)cc3[nH]2)c1 [Example 87, 1-[6-Chloro-5-(3,4-dichloro-benzenesulfonyl)-1H-benzoimidazol-2-yl]-1H-pyrazole-4-carboxylic Acid]
Enzyme pIC50 (human PHD2181-417): 6.68
EPO secretion, % of control compound (Hep-3B cells): 32.4%

SMILES: O=C(O)c1cnn(-c2nc3cc(S(=O)(=O)Cc4ccccc4)c(Cl)cc3[nH]2)c1 [Example 89, 1-(6-Chloro-5-phenylmethanesulfonyl-1H-benzoimidazol-2-yl)-1H-pyrazole-4-carboxylic Acid]
Enzyme pIC50 (human PHD2181-417): 7.5
EPO secretion, % of control compound (Hep-3B cells): 28.4%

SMILES: Cc1cc(C)c(CS(=O)(=O)c2cc3nc(-n4cc(C(=O)O)cn4)[nH]c3cc2Cl)c(C)c1 [Example 90, 1-[6-Chloro-5-(2,4,6-trimethyl-phenylmethanesulfonyl)-1H-benzoimidazol-2-yl]-1H-pyrazole-4-carboxylic Acid]
Enzyme pIC50 (human PHD2181-417): 7.3
EPO secretion, % of control compound (Hep-3B cells): 8.25%

SMILES: COc1ccc(CS(=O)(=O)c2cc3nc(-n4cc(C(=O)O)cn4)[nH]c3cc2Cl)cc1 [Example 91, 1-[6-Chloro-5-(4-methoxy-phenylmethanesulfonyl)-1H-benzoimidazol-2-yl]-1H-pyrazole-4-carboxylic Acid]
Enzyme pIC50 (human PHD2181-417): 7.7
EPO secretion, % of control compound (Hep-3B cells): 22%

Continued, in another order:

Enzyme pIC50 (human PHD2181-417): 6.9
SMILES: O=C(O)c1cnn(-c2nc3cc(Oc4ccccc4)c(Cl)cc3[nH]2)c1 [Example 57, 1-(6-Chloro-5-phenoxy-1H-benzoimidazol-2-yl)-1H-pyrazole-4-carboxylic Acid]
EPO secretion, % of control compound (Hep-3B cells): 55%

Enzyme pIC50 (human PHD2181-417): 6.9
SMILES: Cc1cccc(Sc2cc3nc(-n4cc(C(=O)O)cn4)[nH]c3cc2Cl)c1 [Example 60, 1-(6-Chloro-5-m-tolylsulfanyl-1H-benzoimidazol-2-yl)-1H-pyrazole-4-carboxylic Acid]
EPO secretion, % of control compound (Hep-3B cells): 42.3%

Enzyme pIC50 (human PHD2181-417): 7.07
SMILES: O=C(O)c1cnn(-c2nc3cc(Sc4ccc(Cl)cc4)c(Cl)cc3[nH]2)c1 [Example 61, 1-[6-Chloro-5-(4-chloro-phenylsulfanyl)-1H-benzoimidazol-2-yl]-1H-pyrazole-4-carboxylic Acid]
EPO secretion, % of control compound (Hep-3B cells): 101%

Enzyme pIC50 (human PHD2181-417): 6.75
SMILES: O=C(O)c1cnn(-c2nc3cc(Sc4ccccc4)c(Cl)cc3[nH]2)c1 [Example 62, 1-(6-Chloro-5-phenylsulfanyl-1H-benzoimidazol-2-yl)-1H-pyrazole-4-carboxylic Acid]
EPO secretion, % of control compound (Hep-3B cells): 45.8%

Enzyme pIC50 (human PHD2181-417): 6.18
SMILES: O=C(O)c1cnn(-c2nc3cc(Sc4ccc(Cl)c(Cl)c4)c(Cl)cc3[nH]2)c1 [Example 63, 1-[6-Chloro-5-(3,4-dichloro-phenylsulfanyl)-1H-benzoimidazol-2-yl]-1H-pyrazole-4-carboxylic Acid]
EPO secretion, % of control compound (Hep-3B cells): 26.5%

Enzyme pIC50 (human PHD2181-417): 6.9
SMILES: COc1cccc(Sc2cc3nc(-n4cc(C(=O)O)cn4)[nH]c3cc2Cl)c1 [Example 64, 1-[6-Chloro-5-(3-methoxy-phenylsulfanyl)-1H-benzoimidazol-2-yl]-1H-pyrazole-4-carboxylic Acid]
EPO secretion, % of control compound (Hep-3B cells): 38.3%

Enzyme pIC50 (human PHD2181-417): 6.6
SMILES: COc1ccc(Sc2cc3nc(-n4cc(C(=O)O)cn4)[nH]c3cc2Cl)cc1 [Example 65, 1-[6-Chloro-5-(4-methoxy-phenylsulfanyl)-1H-benzoimidazol-2-yl]-1H-pyrazole-4-carboxylic Acid]
EPO secretion, % of control compound (Hep-3B cells): 56.3%

Enzyme pIC50 (human PHD2181-417): 6.7
SMILES: O=C(O)c1cnn(-c2nc3cc(SCc4ccccc4)c(Cl)cc3[nH]2)c1 [Example 66, 1-(5-Benzylsulfanyl-6-chloro-1H-benzoimidazol-2-yl)-1H-pyrazole-4-carboxylic Acid]
EPO secretion, % of control compound (Hep-3B cells): 41.6%

Enzyme pIC50 (human PHD2181-417): 6.8
SMILES: O=C(O)c1cnn(-c2nc3cc(SCc4ccc(F)cc4)c(Cl)cc3[nH]2)c1 [Example 68, 1-[6-Chloro-5-(4-fluoro-benzylsulfanyl)-1H-benzoimidazol-2-yl]-1H-pyrazole-4-carboxylic Acid]
EPO secretion, % of control compound (Hep-3B cells): 58.4%

Enzyme pIC50 (human PHD2181-417): 6.8
SMILES: O=C(O)c1cnn(-c2nc3cc(SCc4ccccc4Cl)c(Cl)cc3[nH]2)c1 [Example 69, 1-[6-Chloro-5-(2-chloro-benzylsulfanyl)-1H-benzoimidazol-2-yl]-1H-pyrazole-4-carboxylic Acid]
EPO secretion, % of control compound (Hep-3B cells): 85.3%

Enzyme pIC50 (human PHD2181-417): 7.4
SMILES: Cc1cccc(S(=O)(=O)c2cc3nc(-n4cc(C(=O)O)cn4)[nH]c3cc2Cl)c1 [Example 82, 1-[6-Chloro-5-(toluene-3-sulfonyl)-1H-benzoimidazol-2-yl]-1H-pyrazole-4-carboxylic Acid]
EPO secretion, % of control compound (Hep-3B cells): 85.3%

Enzyme pIC50 (human PHD2181-417): 7.3
SMILES: COc1ccc(S(=O)(=O)c2cc3nc(-n4cc(C(=O)O)cn4)[nH]c3cc2Cl)cc1 [Example 84, 1-[6-Chloro-5-(4-methoxy-benzenesulfonyl)-1H-benzoimidazol-2-yl]-1H-pyrazole-4-carboxylic Acid]
EPO secretion, % of control compound (Hep-3B cells): 42.7%

Enzyme pIC50 (human PHD2181-417): 7.4
SMILES: COc1cccc(S(=O)(=O)c2cc3nc(-n4cc(C(=O)O)cn4)[nH]c3cc2Cl)c1 [Example 88, 1-[6-Chloro-5-(3-methoxy-benzenesulfonyl)-1H-benzoimidazol-2-yl]-1H-pyrazole-4-carboxylic Acid]
EPO secretion, % of control compound (Hep-3B cells): 69.4%
